Key:
[1] = molecular target: T1, 5-HT2CR (Homo sapiens, UniProt P28335); parameters: host or cells: stably transfected HEK293 cells (Im et al., Mol. Pharmacol. 64, 78-84, 2003); conditions: Im et al., 2003, cited from earlier work
T1 sequence (P28335 33-458): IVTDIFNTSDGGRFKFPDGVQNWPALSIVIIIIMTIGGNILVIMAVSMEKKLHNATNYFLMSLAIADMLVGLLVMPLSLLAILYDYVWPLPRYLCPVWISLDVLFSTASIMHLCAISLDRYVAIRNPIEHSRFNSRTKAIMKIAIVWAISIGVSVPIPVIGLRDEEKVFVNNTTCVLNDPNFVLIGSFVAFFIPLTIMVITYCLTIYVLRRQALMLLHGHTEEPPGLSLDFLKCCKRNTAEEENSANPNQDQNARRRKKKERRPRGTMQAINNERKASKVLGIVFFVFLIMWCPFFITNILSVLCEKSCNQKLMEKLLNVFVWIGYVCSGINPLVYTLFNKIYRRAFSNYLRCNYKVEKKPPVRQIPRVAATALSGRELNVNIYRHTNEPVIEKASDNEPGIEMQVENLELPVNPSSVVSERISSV

[2] = molecular target: T1, 5-HT2CR; test: 5-HT induced intracellular calcium (Cai++) release assay in live 5-HT2CR-CHO cells; format: cell-based; parameters: expressed in transfected cells
Protocol: Selected results for the biological characterization of the synthesized compounds can be found in Ding et al., ACS Chem. Neurosci., 3, 538-545, 2012, and also described herein. The biological activity is assessed using an intracellular calcium (Cai^++) release assay. The best-characterized intracellular signaling pathway of the 5-HT2CR is the activation of phospholipase C (PLCβ) via Gαq/11 proteins and the production of diacylglycerol (DAG) and inositol-1,4,5-trisphosphate (IP3), leading to increased Cai^++ release from intracellular stores (Berg et al., Neuropharmacology 55, 969-76, 2008). Functional characterization of our synthetic PNU-69176E (CYD-1-78-2) and its diastereomer CYD-1-78-1 was determined by utilizing an Cai^++ release assay in live cells in which Cai^++ levels can be regarded as an outcome measure of activation of the 5-HT2CR signaling pathway (Berg et al., Neuropharmacology 55, 969-76, 2008). […] In addition, 1 nM of compound CYD-1-78-2 enhanced the Cai^++ response at low concentrations of 5-HT [10^11-3×10^−10 M; F(15,55)=16.73, p<0.01; FIG. 2]. […] Neither compound CYD-1-78-2 [F(10,68)=0.81, n.s.] nor the diastereomer CYD-1-78-1 [F(10,34)=0.76, n.s.] in concentrations up to 10^−5 M induced Cai^++ release in the 5-HT2CR—CHO cells in the absence of 5-HT (FIG. 3). This profile for compounds CYD-1-78-2 and −1 in 5-HT2CR—CHO cells was distinguished from that seen in 5-HT2AR—CHO cells in which neither compound alone or in the presence of 5-HT (compound CYD-1-78-1, F(10,43)=0.78; compound CYD-1-78-2, F(10,55)=1.27; FIG. 4) altered Cai^++ release (Ding et al., ACS Chem. Neurosci. 3, 538-545, 2012).
The Chinese hamster ovary (CHO) cell line stably transfected with 5-HT2CR was a generous gift of K. Berg and W. Clarke (University of Texas Health Science Center, San Antonio) (K. A. Berg, W. P. Clarke, C. Sailstad, A. Saltzman and S. Maayani, Mol. Pharmacol. 1994, 46 (3), 477-484; Ding et al., ACS Chem. Neurosci. 3, 538-545, 2012). Cells were grown at 37° C., 5% CO2 and 85% relative humidity in GlutaMax α-MEM (Invitrogen, Carlsbad Calif.), 5% fetal bovine serum (Atlanta Biologicals, Atlanta Ga.), 100 μg/mL hygromycin (Mediatech, Manassas Va.) and were passaged when they reached 80% confluence.
Changes in Cai^++ levels were determined using the calcium sensitive dye Calcium 4 (FLIPR No-wash kit, Molecular Devices, Sunnyvale, Calif., part #R8142). Cells were plated in serum-replete medium at 20,000 cells/well in black-sided, clear bottom 96-well tissue culture plates and were fed ˜24 hrs later with serum-free medium. Following overnight incubation, medium was removed and replaced with 40 μL of fresh serum-free medium plus 40 μL Calcium 4 dye solution in Hank's balanced saline solution (HBSS, without CaCl2 or MgCl2) supplemented with 2.5 mM water soluble probenicid (Invitrogen) to inhibit extracellular transport of the dye. Plates were incubated for 60 min at 37° C. and 60 min at room temperature in the dark. Fluorescence (λex=485 nm, λem=525 nm) was measured with a FlexStation3 (Molecular Devices). A baseline was established for each well during the initial segment of each run. Addition of 20 μL of 5× concentrated tested compound occurred at 17 sec and fluorescence was recorded every 1.7 sec for 90 sec to determine any innate agonist activity. This first round of 90 sec recordings provided a 20 min preincubation period. […] Maximum peak height was determined by the FlexStation software (SoftMax Pro 5.2) for each well and was normalized to vehicle control.

- Cai++ release induced by 0.3 nM 5-HT in presence of compound ([2]; 0.3 nM 5-HT (~EC20) alone gives 23.9%, 5-HTmax determined at 1 μM 5-HT): 48.5 % of 5-HTmax
- effect on Cai++ release induced by 0.3 nM 5-HT ([2]; 0.3 nM 5-HT, 5-HT2CR-CHO cells): potentiated
- concentrations that significantly enhanced Cai++ release above that of 0.3 nM 5-HT alone ([2]; 0.3 nM 5-HT, Dunnett's, p<0.05): 10^−13-10^−7 M
- effect of 1 nM compound on Cai++ response at low concentrations of 5-HT ([2]; 1 nM compound, 5-HT 10^11-3×10^−10 M): enhanced
- effect on Cai++ release at the highest concentration utilized ([2]; 10^−5 M compound, 0.3 nM 5-HT, p<0.05): reduced
Structure (SMILES): CCCCCCCCCCC[C@@H]1CCN[C@H](C(=O)N[C@@H]([C@H]2O[C@H](SC)[C@H](O)[C@@H](O)[C@H]2O)[C@H](C)Cl)C1.Cl [CYD-1-78-2]
- intrinsic activation of GTPγS binding and IP3 release/[3H]IP accumulation in the absence of 5-HT ([1]; HEK293 cell line (~45 pmol/mg protein)): detected intrinsic activation
- concentrations giving positive allosteric modulation in the presence of 5-HT [1]: less than 10 μM
- modulation at higher concentrations in the presence of 5-HT ([1]; concentrations above 10 μM): negative allosteric modulation
- Cai++ release in the absence of 5-HT (intrinsic agonist activity) ([2]; concentrations up to 10^−5 M, no 5-HT): n.s. and did not detect intrinsic agonist activity

— US9533973B2, “Allosteric modulators of 5-hydroxytryptamine 2C receptor (5-HT2CR)” (THE BOARD OF REGENTS OF THE UNIVERSITY OF TEXAS SYSTEM, priority 2011, dated 2017)
